Reference: the NIST ThermoML archive (doi:10.1021/je800110r)
Numbers after ± are expanded uncertainties.

Conditions: 303.16 K, Liquid, Vibrating tube method

CCCCCCCCCC [decane]
mass density (20929 kPa): 738 ± 2 kg/m3
mass density (20946 kPa): 738.2 ± 2 kg/m3
mass density (20968 kPa): 738.1 ± 2 kg/m3
mass density (20994 kPa): 738 ± 2 kg/m3
mass density (21014 kPa): 738.1 ± 2 kg/m3
mass density (21034 kPa): 738.1 ± 2 kg/m3
mass density (21060 kPa): 738.2 ± 2 kg/m3
mass density (21084 kPa): 738.1 ± 2 kg/m3
mass density (21107 kPa): 738.2 ± 2 kg/m3
mass density (21124 kPa): 738.2 ± 2 kg/m3
mass density (21151 kPa): 738.1 ± 2 kg/m3
mass density (21174 kPa): 738.2 ± 2 kg/m3
mass density (21191 kPa): 738.2 ± 2 kg/m3
mass density (21209 kPa): 738.2 ± 2 kg/m3
mass density (21226 kPa): 738.3 ± 2 kg/m3
mass density (21243 kPa): 738.2 ± 2 kg/m3
mass density (21267 kPa): 738.4 ± 2 kg/m3
mass density (21293 kPa): 738.3 ± 2 kg/m3
mass density (21314 kPa): 738.3 ± 2 kg/m3
mass density (21341 kPa): 738.3 ± 2 kg/m3
mass density (21358 kPa): 738.4 ± 2 kg/m3
mass density (21382 kPa): 738.3 ± 2 kg/m3
mass density (21403 kPa): 738.3 ± 2 kg/m3
mass density (21424 kPa): 738.5 ± 2 kg/m3
mass density (21448 kPa): 738.4 ± 2 kg/m3
mass density (21469 kPa): 738.5 ± 2 kg/m3
mass density (21490 kPa): 738.4 ± 2 kg/m3
mass density (21514 kPa): 738.4 ± 2 kg/m3
mass density (21538 kPa): 738.4 ± 2 kg/m3
mass density (21560 kPa): 738.6 ± 2 kg/m3
mass density (21579 kPa): 738.5 ± 2 kg/m3
mass density (21600 kPa): 738.5 ± 2 kg/m3
mass density (21622 kPa): 738.5 ± 2 kg/m3
mass density (21641 kPa): 738.5 ± 2 kg/m3
mass density (21662 kPa): 738.6 ± 2 kg/m3
mass density (21686 kPa): 738.6 ± 2 kg/m3
mass density (21708 kPa): 738.7 ± 2 kg/m3
mass density (21730 kPa): 738.6 ± 2 kg/m3
mass density (21745 kPa): 738.7 ± 2 kg/m3
mass density (21779 kPa): 738.7 ± 2 kg/m3
mass density (21805 kPa): 738.6 ± 2 kg/m3
mass density (21827 kPa): 738.7 ± 2 kg/m3
mass density (21847 kPa): 738.7 ± 2 kg/m3
mass density (21869 kPa): 738.6 ± 2 kg/m3
mass density (21891 kPa): 738.7 ± 2 kg/m3
mass density (21916 kPa): 738.7 ± 2 kg/m3
mass density (21938 kPa): 738.8 ± 2 kg/m3
mass density (21962 kPa): 738.8 ± 2 kg/m3
mass density (21987 kPa): 738.7 ± 2 kg/m3
mass density (22006 kPa): 738.8 ± 2 kg/m3
mass density (22029 kPa): 738.9 ± 2 kg/m3
mass density (22057 kPa): 738.8 ± 2 kg/m3
mass density (22086 kPa): 738.8 ± 2 kg/m3
mass density (22108 kPa): 738.7 ± 2 kg/m3
mass density (22127 kPa): 738.9 ± 2 kg/m3
mass density (22153 kPa): 738.8 ± 2 kg/m3
mass density (22178 kPa): 738.9 ± 2 kg/m3
mass density (22201 kPa): 738.8 ± 2 kg/m3
mass density (22224 kPa): 739 ± 2 kg/m3
mass density (22246 kPa): 738.9 ± 2 kg/m3
mass density (22269 kPa): 738.9 ± 2 kg/m3
mass density (22291 kPa): 739.1 ± 2 kg/m3
mass density (22314 kPa): 739 ± 2 kg/m3
mass density (22333 kPa): 738.9 ± 2 kg/m3
mass density (22360 kPa): 739 ± 2 kg/m3
mass density (22380 kPa): 739 ± 2 kg/m3
mass density (22410 kPa): 739 ± 2 kg/m3
mass density (22436 kPa): 739 ± 2 kg/m3
mass density (22463 kPa): 739.1 ± 2 kg/m3
mass density (22489 kPa): 739.1 ± 2 kg/m3
mass density (22516 kPa): 739 ± 2 kg/m3
mass density (22542 kPa): 739.1 ± 2 kg/m3
mass density (22565 kPa): 739.1 ± 2 kg/m3
mass density (22589 kPa): 739.2 ± 2 kg/m3
mass density (22619 kPa): 739.2 ± 2 kg/m3
mass density (22647 kPa): 739.2 ± 2 kg/m3
mass density (22666 kPa): 739.2 ± 2 kg/m3
mass density (22696 kPa): 739.3 ± 2 kg/m3
mass density (22723 kPa): 739.2 ± 2 kg/m3
mass density (22750 kPa): 739.3 ± 2 kg/m3
mass density (22773 kPa): 739.3 ± 2 kg/m3
mass density (22801 kPa): 739.4 ± 2 kg/m3
mass density (22825 kPa): 739.3 ± 2 kg/m3
mass density (22846 kPa): 739.3 ± 2 kg/m3
mass density (22870 kPa): 739.4 ± 2 kg/m3
mass density (22897 kPa): 739.3 ± 2 kg/m3
mass density (22918 kPa): 739.3 ± 2 kg/m3
mass density (22950 kPa): 739.5 ± 2 kg/m3
mass density (22971 kPa): 739.4 ± 2 kg/m3
mass density (22996 kPa): 739.5 ± 2 kg/m3
mass density (23013 kPa): 739.5 ± 2 kg/m3
mass density (23041 kPa): 739.4 ± 2 kg/m3
mass density (23062 kPa): 739.5 ± 2 kg/m3
mass density (23097 kPa): 739.5 ± 2 kg/m3
mass density (23124 kPa): 739.5 ± 2 kg/m3
mass density (23149 kPa): 739.6 ± 2 kg/m3
mass density (23174 kPa): 739.6 ± 2 kg/m3
mass density (23202 kPa): 739.6 ± 2 kg/m3
mass density (23224 kPa): 739.6 ± 2 kg/m3
mass density (23257 kPa): 739.7 ± 2 kg/m3
mass density (23285 kPa): 739.6 ± 2 kg/m3
mass density (23310 kPa): 739.6 ± 2 kg/m3
mass density (23339 kPa): 739.7 ± 2 kg/m3
mass density (23360 kPa): 739.7 ± 2 kg/m3
mass density (23385 kPa): 739.6 ± 2 kg/m3
mass density (23411 kPa): 739.7 ± 2 kg/m3
mass density (23437 kPa): 739.8 ± 2 kg/m3
mass density (23466 kPa): 739.7 ± 2 kg/m3
mass density (23495 kPa): 739.8 ± 2 kg/m3
mass density (23526 kPa): 739.7 ± 2 kg/m3
mass density (23549 kPa): 739.7 ± 2 kg/m3
mass density (23575 kPa): 739.9 ± 2 kg/m3
mass density (23600 kPa): 739.8 ± 2 kg/m3
mass density (23630 kPa): 739.9 ± 2 kg/m3
mass density (23652 kPa): 739.9 ± 2 kg/m3
mass density (23682 kPa): 739.9 ± 2 kg/m3
mass density (23705 kPa): 739.9 ± 2 kg/m3
mass density (23735 kPa): 739.9 ± 2 kg/m3
mass density (23761 kPa): 740 ± 2 kg/m3
mass density (23784 kPa): 739.9 ± 2 kg/m3
mass density (23813 kPa): 739.9 ± 2 kg/m3
mass density (23845 kPa): 740.1 ± 2 kg/m3
mass density (23872 kPa): 740 ± 2 kg/m3
mass density (23902 kPa): 740.1 ± 2 kg/m3
mass density (23933 kPa): 740.1 ± 2 kg/m3
mass density (23968 kPa): 740.1 ± 2 kg/m3
mass density (23991 kPa): 740.1 ± 2 kg/m3
mass density (24021 kPa): 740.2 ± 2 kg/m3
mass density (24048 kPa): 740.2 ± 2 kg/m3
mass density (24083 kPa): 740.1 ± 2 kg/m3
mass density (24102 kPa): 740.1 ± 2 kg/m3
mass density (24133 kPa): 740.2 ± 2 kg/m3
mass density (24165 kPa): 740.2 ± 2 kg/m3
mass density (24200 kPa): 740.3 ± 2 kg/m3
mass density (24235 kPa): 740.3 ± 2 kg/m3
mass density (24255 kPa): 740.2 ± 2 kg/m3
mass density (24282 kPa): 740.4 ± 2 kg/m3
